Assay results: the supplement of paper PMC11208160

Assay: recombinant barcode read abundance after kanamycin selection (control-corrected) (log10(CPM+1)); higher = more efficient recombination; sequences stand for … in AGTGCAGAGAAAATCGGCCAGTTTTCTCTGCCTGCAGTCCGCATGCCGT…AGATTTATGCAGCGGACTGCCTTTCTCCCAAAGTGATAAACCGGACAGTATCATGGACCGGTTTTCCCGGTAATCCGTATTTGCAAGGTTGGTTTCACT; site = the 11-nt target
How it was run: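 IS621 bridge RNA target-binding loops were paired with targets in a pooled library tested in E. coli. After co-electroporation with a donor plasmid, cells were plated in two replicates on chloramphenicol/ampicillin LB agar (control) and on chloramphenicol/ampicillin/kanamycin carrying 0.1 mM IPTG. Barcodes at recombinant junctions were counted as counts per million, averaged and control-corrected to give recombination efficiency. Values are log10(CPM+1).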
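Note: IS621 recombinase and bridge RNA in Escherichia coli cells.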

Sequence | recombinant barcode read abundance (log10)
TGGCCCTCTTGGGTTCTAACCTGTTGCTG (site TGGCCCTCTGA) | 0.0444
TGGCCCTCTTGGGTTCTAACCTGTTGCTG (site TGGCCCTCTTA) | 0.111
TGGCCTTCTTGGGTTCTAACCTGTTGCCT (site TAGCCTTCTAG) | 0.0963
TGGCCTTCTTGGGTTCTAACCTGTTGCCT (site TCGCCTTCTAG) | 0.0688
TGGCCTTCTTGGGTTCTAACCTGTTGCCT (site TGGCCTTCTAG) | 0.781
TGGCCTTCTTGGGTTCTAACCTGTTGCCT (site TTGCCTTCTAG) | 0.0528
TGGCGAGCTTGGGTTCTAACCTGTTGCCT (site TGGCCTGCTAG) | 0.152
TGGCGAGCTTGGGTTCTAACCTGTTGCCT (site TGGCGAGCTAG) | 1.02
TGGCGCTCTTGGGTTCTAACCTGTTGCCT (site TGACGCTCTAG) | 0.855
TGGCGCTCTTGGGTTCTAACCTGTTGCCT (site TGCCGCTCTAG) | 0
TGGCGCTCTTGGGTTCTAACCTGTTGCCT (site TGGCGCTCTAG) | 0.457
TGGCGCTCTTGGGTTCTAACCTGTTGCCT (site TGTCGCTCTAG) | 0.0369
TGGCTATCTTGGGTTCTAACCTGTTGCCT (site CGGCTATCTAG) | 0.00906
TGGCTATCTTGGGTTCTAACCTGTTGCCT (site TGGCTATCTAG) | 0.187
TGGCTCCCTTGGGTTCTAACCTGTTGCCG (site TGGCTCCCTCC) | 0.077
TGGCTCCCTTGGGTTCTAACCTGTTGCCG (site TGGCTCCCTCG) | 1.35
TGGCTCCCTTGGGTTCTAACCTGTTGCGG (site TGGCTCCCTCC) | 0.188
TGGCTCCCTTGGGTTCTAACCTGTTGCGG (site TGGCTCCCTCG) | 0.12

Sequence | recombinant barcode read abundance (log10)
TGGGACTCTTGGGTTCTAACCTGTTGCCA (site TCGGACACTTG) | 0.328
TGGGACTCTTGGGTTCTAACCTGTTGCCA (site TGGGACTCTTG) | 2.29
TGGGATCCTTGGGTTCTAACCTGTTGCAT (site AGGGGTCCTAT) | 0.0813
TGGGATCCTTGGGTTCTAACCTGTTGCAT (site TGGGATCCTAT) | 1.73
TGGGGCCCTTGGGTTCTAACCTGTTGCCT (site TGGGGCCCTAG) | 1.66
TGGGGCCCTTGGGTTCTAACCTGTTGCCT (site TGGTGCCCTAC) | 0.156
TGGGGTCCTTGGGTTCTAACCTGTTGCCT (site TGGAGTCCTAG) | 1.52
TGGGGTCCTTGGGTTCTAACCTGTTGCCT (site TGGCGTCCTAG) | 0.0786
TGGGGTCCTTGGGTTCTAACCTGTTGCCT (site TGGGGTCCTAG) | 2.33
TGGGGTCCTTGGGTTCTAACCTGTTGCCT (site TGGTGTCCTAG) | 0.217
TGGGTCCCTTGGGTTCTAACCTGTTGCCT (site TGAGTCCCTAG) | 2.14
TGGGTCCCTTGGGTTCTAACCTGTTGCCT (site TGCGTCCCTAG) | 0.102
TGGGTCCCTTGGGTTCTAACCTGTTGCCT (site TGGGTCCCTAG) | 3
TGGGTCCCTTGGGTTCTAACCTGTTGCCT (site TGTGTCCCTAG) | 0.0764
TGGTACCCTTGGGTTCTAACCTGTTGCCT (site TGGTACCCTAG) | 1.64
TGGTACCCTTGGGTTCTAACCTGTTGCCT (site TGTTACCCTAG) | 0.126
TGGTATTCTTGGGTTCTAACCTGTTGCCT (site TGGTATACTAG) | 0.0539
TGGTATTCTTGGGTTCTAACCTGTTGCCT (site TGGTATCCTAG) | 0.113
